From patent US20100092574A1, “SYNERGISTIC PEROXIDE BASED BIOCIDAL COMPOSITIONS” (priority 2008, published 2010) come the findings set out here.

The nature of data set [1]: Stability of active halogen species in the presence of residual H2O2. Type of data set: physicochemical. Here is the method: The stability of nitrogen-bound active halogen species in the presence of residual H2O2 was investigated. Free and total chlorine concentrations were measured by standard DPD methodology and the total H2O2 concentration by acidic […] titration. The concentration of MCDMH is the concentration of the total active halogen less the concentration of free active halogen. The concentration of H2O2 is the total oxidant concentration less the MCDMH concentration. […] The indicated reaction is shown in Equation 6.
The effect of the addition of a molar equivalent of 5,5-dimethylhydantoin (DMH) to NaOCl solutions prior to combination with hydrogen peroxide was investigated. The concentration of MCDMH is the concentration of the total active halogen less the concentration of free active halogen. The concentration of H2O2 is the total oxidant concentration less the MCDMH concentration.

Data set [2] in a line: Residual sulfite and hydrogen peroxide content after mixing (co-stability). The format is physicochemical. How it is done: Aqueous solutions containing sodium sulfite and hydrogen peroxide were mixed at 21° C. to obtain a solution having a sulfite content (as SO3^2−) of 40 ppm, a hydrogen peroxide content of 20.0 ppm and a pH of 6.7. The temperature of the solution was maintained at 21° C. and the residual sulfite and peroxide content was determined at 15, 30 and 60 minutes after mixing. The procedure consisted of adding a known amount of 1-chloro-5,5-dimethylhydantoin (MCDMH) to the samples in excess of the estimated residual sulfite content. The remaining MCDMH concentration was then measured by standard DPD total halogen methodologies. As sulfite rapidly neutralizes MCDMH at all pHs the sulfite concentration is the concentration of MCDMH added less the concentration of MCDMH measured, see Equation 1 below.
[Sulfite]=[MCDMHadded]−[MCDMHmeasured] (1)
The H2O2 concentration was determined by recording the concentration of H2O2 measured using acidic thiosulfate titration with KI indicator (HACH HYP-1 hydrogen peroxide test kit—Hach Co., Loveland, Colo.). Since this titration is run at acidic pH, this method yields the concentration of H2O2 in excess of the sulfite concentration contained in the sample. As the sulfite concentration is known from the MCMDH analysis and Equation 1, the H2O2 concentration can be calculated using the following Equation 2:
[H2O2]=[H2O2 measured]+[Sulfitecalculated] (2)
The estimated error in the methodology is ±1 ppm
The procedure of Example 1 was repeated with the difference that the pH of the mixed solution was 9.0 and the residual concentrations were determined 5, 15, 30, 60, 120 and 1080 minutes after mixing.

Data set [3] concerns microbial population of sulfite bleached pulp slurry (total aerobic counts). The data set can be described thus: Biocidal performance in sulfite bleached pulp slurry, total aerobic counts (tryptone soy agar plating). The conditions noted are these: for 3 h Reduction / 24 h Reduction: peroxide 0 ppm; for 3 h Reduction: 3 h contact; for 24 h Reduction: 24 h contact. Type of data set: cell-based. From the text: (§1) The expression “1 g cfu/mL” denotes the common (decadic) logarithm of the number of colony-forming units per milliliter or, in connection with the term “reduction”, the common logarithm of the quotient of the number of colony-forming units per milliliter before treatment and the number of colony-forming units after treatment. Unless otherwise indicated all concentrations in percent or ppm are expressed on a weight basis.
Synergistic biocidal performance upon co-application of sulfite with hydrogen peroxide at elevated pH was investigated. The sulfite and peroxide concentrations indicated in Table 3 below were added to an aqueous solution made from: (a) deionized water, (b) NaHCO3 to achieve a carbonate buffer concentration of 200 ppm (as CaCO3 total alkalinity), (c) sulfite bleached pulp slurry to achieve a final consistency of 0.05%, carrying an associated minimal concentration of residual sulfite of 6 ppm, and (d) NaOH to achieve a pH of 9.0.
The microbial population was that provided by preparing the pulp slurry 24-48 h prior to testing and storing at room temperature, thus allowing microbial growth to a high test level. […] Populations reported are total aerobic counts using tryptone soy agar plating.
SI=(level of A)/(efficacious level of A)+(level of B)/(efficacious level of B) (3)
Synergy upon co-application of sulfite with hydrogen peroxide at higher concentrations of sulfite and hydrogen peroxide was investigated. The conditions were the same as in Example 3.

In the next data set the test system is Pseudomonas aeruginosa. The experiment in a line: Bactericidal efficacy of sulfite and hydrogen peroxide solutions in the absence of pulp. The format is cell-based. The conditions noted are these: peroxide 0 ppm, pH 7.0, 3 h at 37° C.
Description: as §1
The bactericidal efficacy of solutions containing sulfite and hydrogen peroxide was further investigated in the absence of pulp. Efficacy was measured against Pseudomonas aeruginosa grown in nutrient in the presence of 83 and 830 ppm sulfite. The sulfite-containing P. aeruginosa inoculum was then diluted 1:99 with Butterfield's buffer at pH 7.0. The sulfite concentrations in Table 5 below are the those in the final dilution. The dilutions were then contacted with 50 ppm hydrogen peroxide for 3 h at 37° C.

Setting [4] is: 2.1 ppm H2O2 + 1.0 ppm DMH stabilized NaOCl, 1 min.
[5] abbreviates: 2.1 ppm H2O2 + 1.0 ppm DMH stabilized NaOCl, 5 min.
Where [6] appears, read: 2.1 ppm H2O2 + 1.0 ppm DMH stabilized NaOCl, 15 min.
Where [7] appears, read: 2.1 ppm H2O2 + 1.0 ppm DMH stabilized NaOCl, 60 min.
Setting [8] is: pH 9.0, start 40 ppm sulfite + 20.0 ppm H2O2, 5 min.
Setting [9] is: pH 9.0, start 40 ppm sulfite + 20.0 ppm H2O2, 15 min.
Where [10] appears, read: pH 9.0, start 40 ppm sulfite + 20.0 ppm H2O2, 30 min.
The mark [11] stands for this setting: pH 9.0, start 40 ppm sulfite + 20.0 ppm H2O2, 60 min.
Where [12] appears, read: pH 9.0, start 40 ppm sulfite + 20.0 ppm H2O2, 120 min.
Where [13] appears, read: pH 9.0, start 40 ppm sulfite + 20.0 ppm H2O2, 1080 min.
The mark [14] stands for this setting: Table 3 Test No. 2: sulfite 32 ppm, pH 9.0.
Setting [15] is: Table 3 Test No. 3: sulfite 128 ppm, pH 9.0.
Setting [16] is: Table 4 Test No. 2: sulfite 128 ppm.
[17] abbreviates: Table 4 Test No. 3: sulfite 512 ppm.
[18] abbreviates: 2.1 ppm H2O2 + 1.0 ppm NaOCl (as Cl2), 1 min.

`CC1(C)C(=O)NC(=O)N1Cl` [DMH stabilized NaOCl, 1-chloro-5,5-dimethylhydantoin]: the “Free active halogen DPD (as Cl2)” value in data set [1] (setting [4]), in data set [1] (setting [5]), in data set [1] (setting [6]) and in data set [1] (setting [7]) was 0.0 ppm each time. Besides, the “Indicated Species DMH stabilized NaOCl (as Cl2)” value came to 0.9 ppm in data set [1] (setting [4]), 1.0 ppm in data set [1] (setting [5]), 0.9 ppm in data set [1] (setting [6]) and 0.9 ppm in data set [1] (setting [7]). In addition, the “Total active halogen DPD (as Cl2)” value amounted to 0.9 ppm in data set [1] (setting [4]), 1.0 ppm in data set [1] (setting [5]), 0.9 ppm in data set [1] (setting [6]) and 0.9 ppm in data set [1] (setting [7]).

For the molecule `O=S([O-])[O-].[Na+].[Na+]` [Sulfite, sodium sulfite], the “Sulfite (as H2O2)” value in data set [2] (pH 6.7, 21° C., start 40 ppm sulfite + 20.0 ppm H2O2, 15 min) worked out at 3.1 ppm; in data set [2] (pH 6.7, 21° C., start 40 ppm sulfite + 20.0 ppm H2O2, 30 min) it was 2.3 ppm; in data set [2] (pH 6.7, 21° C., start 40 ppm sulfite + 20.0 ppm H2O2, 60 min), 0.0 ppm; in data set [2] (setting [8]), 7.9 ppm; in data set [2] (setting [9]), 6.8 ppm; in data set [2] (setting [10]) it was 6.7 ppm. Moreover, the “Sulfite (as H2O2)” value in data set [2] (setting [11]) is reported as 6.2 ppm; in data set [2] (setting [12]), 5.2 ppm; in data set [2] (setting [13]) it was 0.1 ppm. The “Sulfite (as SO3^2−)” value in data set [2] (pH 6.7, 21° C., start 40 ppm sulfite + 20.0 ppm H2O2, 15 min after mixing) was found to be 7.2 ppm; in data set [2] (pH 6.7, 21° C., start 40 ppm sulfite + 20.0 ppm H2O2, 30 min after mixing), 5.4 ppm; in data set [2] (pH 6.7, 21° C., start 40 ppm sulfite + 20.0 ppm H2O2, 60 min after mixing), 0.0 ppm; in data set [2] (setting [8]), 18.7 ppm; in data set [2] (setting [9]), 16.0 ppm; in data set [2] (setting [10]), 15.7 ppm. Further, the “Sulfite (as SO3^2−)” value is on record as 14.6 ppm in data set [2] (setting [11]), 12.3 ppm in data set [2] (setting [12]) and 0.3 ppm in data set [2] (setting [13]). Besides, the “effect on bacterial populations” value in data set [3] (Example 3, sulfite alone at 32-128 ppm) is reported as “no significant effect”. In data set [3] (Example 4, single agent), the “amount alone required to achieve 1 g cfu/mL reduction of 4.2” value is more than 512 ppm. Besides, the “effect on the microbial populations” value in data set [3] (Example 4, sulfite at 128-512 ppm) is “no significant effect”. For the same molecule, the “3 h Reduction” value in data set [3] (setting [14]) is given as −0.40 lg cfu/mL; in data set [3] (setting [15]) it was −0.50 lg cfu/mL; in data set [3] (setting [16]), 0.32 lg cfu/mL; in data set [3] (setting [17]) it was 0.08 lg cfu/mL; in the data set with Pseudomonas aeruginosa (Table 5 Test No. 2: sulfite 8.3 ppm), 0.1 lg cfu/mL; in the data set on Pseudomonas aeruginosa (Table 5 Test No. 3: sulfite 0.83 ppm), 0.0 lg cfu/mL. Further, the “24 h Reduction” value in data set [3] (setting [14]) was 0.11 lg cfu/mL; in data set [3] (setting [15]) it was −0.45 lg cfu/mL; in data set [3] (setting [16]), 0.11 lg cfu/mL; in data set [3] (setting [17]), −0.45 lg cfu/mL.

In the case of `[Na+].[O-]Cl` [NaOCl], in data set [1] (setting [18]), the “Free active halogen DPD (as Cl2)” value was determined as 0.0 ppm, the “Indicated Species NaOCl (as Cl2)” value stood at 0.0 ppm and the “Total active halogen DPD (as Cl2)” value is listed as 0.0 ppm. Further, in data set [1] (2.1 ppm H2O2 + 1.0 ppm NaOCl (as Cl2), 5 min), the “Indicated Species NaOCl (as Cl2)” value is 0.0 ppm. In addition, the “Indicated Species NaOCl (as Cl2)” value in data set [1] (2.1 ppm H2O2 + 1.0 ppm NaOCl (as Cl2), 15 min) came to 0.0 ppm. Moreover, the “free chlorine after combination” value in data set [1] (combination of 2.1 ppm H2O2 with 1 ppm NaOCl (as Cl2), immediate) is listed as “no detectable free chlorine”.
